Assay results taken from patent US8309568B2, “Transdermally deliverable opioid prodrugs, abuse-resistant compositions and methods of using opioid prodrugs” (Alltranz Inc., priority 2006, dated 2012).
Read-outs that look alike come from different tables or passages of the source.

Key:
[1] = not given; remark: listed apart in the source
[2] = Table 8, gel formulation, analyte buprenorphine from prodrug
[3] = Table 8, gel formulation, analyte intact prodrug
[4] = Table 8, gel formulation, analyte total buprenorphine (buprenorphine and/or prodrug)
[5] = Table 8, gel formulation, total buprenorphine flux relative to buprenorphine
[6] = Table 9, propylene glycol, analyte buprenorphine from prodrug
[7] = Table 9, propylene glycol, analyte intact prodrug
[8] = Table 9, propylene glycol, analyte total buprenorphine (buprenorphine and/or prodrug)
[9] = Table 6, propylene glycol, 25% aq. ethanol receiver, analyte buprenorphine from prodrug
[10] = Table 6, propylene glycol, 25% aq. ethanol receiver, analyte intact prodrug
[11] = Table 6, propylene glycol, 25% aq. ethanol receiver, analyte total buprenorphine (buprenorphine and/or prodrug)
[12] = Table 11, propylene glycol, analyte buprenorphine from prodrug
[13] = Table 11, propylene glycol, analyte total buprenorphine (buprenorphine and/or prodrug)
[14] = Table 11, propylene glycol, total buprenorphine flux relative to buprenorphine
[15] = Table 11, propylene glycol, analyte intact prodrug
[16] = Table 12, propylene glycol/ethanol [96:4], analyte buprenorphine from prodrug
[17] = Table 12, propylene glycol/ethanol [96:4], analyte intact prodrug
[18] = Table 12, propylene glycol/ethanol [96:4], analyte total buprenorphine (buprenorphine and/or prodrug)
[19] = Table 13, gel formulation, analyte buprenorphine from prodrug
[20] = Table 13, gel formulation, analyte total buprenorphine (buprenorphine and/or prodrug)
[21] = Table 10, gel formulation, analyte intact prodrug
[22] = Table 10, gel formulation, analyte total buprenorphine (buprenorphine and/or prodrug)

In the case of `COCCOCCOCCOC(=O)Oc1ccc2c3c1OC1C4(OC)CC[C@]5(CC4C(C)(O)C(C)(C)C)[C@@H](C2)N(CC2CC2)CC[C@]315` (stereo partly drawn) [ALL00106, Buprenorphine 3,6,9-trioxadecyl carbonate], the “form in which the prodrug permeated through the skin” value (Hanks' buffer receiver fluid) is reported as “permeated through the human skin as buprenorphine”, the “24 h cumulative amt” value (Table 3, donor propylene glycol, Hanks' buffer receiver, buprenorphine permeated) is reported as 11.4 ± 0.8 nmol and the Flux (Table 3, donor propylene glycol, Hanks' buffer receiver, total buprenorphine flux) is reported as 0.54±0.07 nmol/cm^2/h. The Flux enhancement (Table 3, donor propylene glycol, flux relative to buprenorphine) was 1.20, the “24 h cumulative amt” value [2] was 1.7 ± 0.3 nmol and the Flux [2] was 0.2 ± 0.1 nmol/cm^2/h. For the same molecule, the Lag time [2] was 4.7 ± 1.5 h, the “24 h cumulative amt” value [3] was 3.8 ± 0.3 nmol and the Flux [3] was 0.3 ± 0.0 nmol/cm^2/h. The Lag time [3] was 8.2 ± 0.8 h, the “24 h cumulative amt” value [4] was 5.5 ± 0.5 nmol and the Flux [4] was 0.4 ± 0.1 nmol/cm^2/h. For the same molecule, the Lag time [4] was 6.5 ± 1.1 h, the Flux enhancement [5] was 0.4 and the “24 h cumulative amt” value [6] was 30.1 ± 13.2 nmol. The Flux [6] was 2.3 ± 0.8 nmol/cm^2/h, the Lag time [6] was 10.2 ± 1.4 h and the “24 h cumulative amt” value [7] was 18.8 ± 4.6 nmol. The Flux [7] was 1.5 ± 0.3 nmol/cm^2/h, the Lag time [7] was 11.1 ± 1.2 h and the “24 h cumulative amt” value [8] was 48.9 ± 17.6 nmol. For the same molecule, the Flux [8] was 3.8 ± 1.1 nmol/cm^2/h, the Lag time [8] was 10.6 ± 1.3 h and the Flux enhancement (Table 9, propylene glycol, total buprenorphine flux relative to buprenorphine) was 3.2. For the same molecule, the “24 h skin conc” value ([1]; Table 3, donor propylene glycol, Hanks' buffer receiver, analyte buprenorphine (Bup)) was 0.2 ± 0.1 (Bup) μmol/g, the “24 h skin conc” value ([1]; Table 3, donor propylene glycol, Hanks' buffer receiver, analyte intact prodrug (PD)) was 2.1 ± 1.5 (PD) μmol/g and the “24 h skin conc” value [1, 2] was 0.3 ± 0.1 µmol/g. For the same molecule, the “24 h skin conc” value [1, 3] was 11.9 ± 3.6 µmol/g, the “24 h skin conc” value [1, 4] was 12.2 ± 3.6 µmol/g and the “24 h skin conc” value [1, 6] was 1.6 ± 0.4 µmol/g. The “24 h skin conc” value [1, 7] was 10.4 ± 4.0 µmol/g and the “24 h skin conc” value [1, 8] was 11.9 ± 4.4 µmol/g.

With `COCCOCCOCC(=O)Oc1ccc2c3c1O[C@H]1[C@@]4(OC)CC[C@@]5(C[C@@H]4[C@@](C)(O)C(C)(C)C)[C@@H](C2)N(CC2CC2)CC[C@]315` [ALL00108, Buprenorphine 2-[2-(2-methoxyethoxy)ethoxy]acetyl ester] the “24 h cumulative amt” value [9] was 9.7 ± 0.4 nmol, the Flux [9] was 0.90 ± 0.07 nmol/cm^2/h and the Lag time [9] was 12.5 ± 1.3 h. The “24 h cumulative amt” value [10] was 7.6 ± 2.0 nmol, the “24 h cumulative amt” value [11] was 17.3 ± 1.6 nmol and the Flux [11] was 1.01±0.07 nmol/cm^2/h. The Lag time [11] was 6.0 ± 0.5 h, the Flux enhancement (Table 6, propylene glycol, 25% aq. ethanol receiver, total buprenorphine flux relative to buprenorphine) was 2.35 and the “24 h cumulative amt” value [2] was 21.0 ± 6.7 nmol. The Flux [2] was 1.2 ± 0.6 nmol/cm^2/h, the Lag time [2] was 7.8 ± 0.8 h and the “24 h cumulative amt” value [4] was 21.0 ± 6.7 nmol. For the same molecule, the Flux [4] was 1.2±0.6 nmol/cm^2/h, the Lag time [4] was 7.8 ± 0.8 h and the Flux enhancement [5] was 1.3. For the same molecule, the “24 h cumulative amt” value [12] was 5.8 ± 0.7 nmol, the Flux [12] was 0.5 ± 0.0 nmol/cm^2/h and the Lag time [12] was 10.9 ± 2.4 h. For the same molecule, the “24 h cumulative amt” value [13] was 5.8 ± 0.7 nmol, the Flux [13] was 0.5±0.0 nmol/cm^2/h and the Lag time [13] was 10.9 ± 2.4 h. For the same molecule, the Flux enhancement [14] was 1.7, the “form in which the prodrug permeated through the skin” value (aqueous ethanol receiver fluid) was “permeated through the skin as buprenorphine and intact prodrug” and the “cumulative amount (nmol) higher than the buprenorphine base” value (aqueous ethanol receiver, propylene glycol, relative to buprenorphine base) was 4 ×. The “24 h skin conc” value [1, 9] was 0.4 ± 0.1 µmol/g, the “24 h skin conc” value [1, 10] was 1.0 ± 0.3 µmol/g and the “24 h skin conc” value [1, 11] was 1.4 ± 0.4 µmol/g. The “24 h skin conc” value [1, 2] was 0.2 ± 0.2 µmol/g, the “24 h skin conc” value [1, 3] was 1.9 ± 1.6 µmol/g and the “24 h skin conc” value [1, 4] was 2.2 ± 1.8 µmol/g. For the same molecule, the “24 h skin conc” value [1, 15] was 2.4 ± 0.7 µmol/g and the “24 h skin conc” value [1, 13] was 2.4 ± 0.7 µmol/g.

With `COCCOCCOCCOCC(=O)Oc1ccc2c3c1OC1C4(OC)CC[C@]5(CC4C(C)(O)C(C)(C)C)[C@@H](C2)N(CC2CC2)CC[C@]315` (stereo partly drawn) [ALL00116, Buprenorphine 3,6,9,12-tetraoxatridecanoyl ester] the “24 h cumulative amt” value [16] was 8.7 ± 1.2 nmol, the Flux [16] was 0.8 ± 0.2 nmol/cm^2/h and the Lag time [16] was 13.2 ± 0.8 h. The “24 h cumulative amt” value [17] was 21.7 ± 6.7 nmol, the Flux [17] was 1.9 ± 0.6 nmol/cm^2/h and the Lag time [17] was 11.8 ± 1.4 h. For the same molecule, the “24 h cumulative amt” value [18] was 30.4 ± 7.0 nmol, the Flux [18] was 2.7±0.7 nmol/cm^2/h and the Lag time [18] was 12.3 ± 1.2 h. For the same molecule, the Flux enhancement (Table 12, propylene glycol/ethanol [96:4], total buprenorphine flux relative to buprenorphine) was 9.2, the “24 h cumulative amt” value [19] was 5.5 ± 0.6 nmol and the Flux [19] was 0.4 ± 0.1 nmol/cm^2/h. For the same molecule, the Lag time [19] was 7.2 ± 0.6 h, the “24 h cumulative amt” value [20] was 5.5 ± 0.6 nmol and the Flux [20] was 0.4±0.1 nmol/cm^2/h. The Lag time [20] was 7.2 ± 0.6 h, the Flux enhancement (Table 13, gel formulation, total buprenorphine flux relative to buprenorphine) was 1.2 and the “24 h skin conc” value [1, 16] was 2.4 ± 0.9 µmol/g. For the same molecule, the “24 h skin conc” value [1, 17] was 20.4 ± 5.8 µmol/g, the “24 h skin conc” value [1, 18] was 22.7 ± 6.8 µmol/g and the “24 h skin conc” value [1, 19] was 0.2 ± 0.0 µmol/g. The “24 h skin conc” value ([1]; Table 13, gel formulation, analyte intact prodrug) was 3.3 ± 0.8 µmol/g and the “24 h skin conc” value [1, 20] was 3.5 ± 0.9 µmol/g.

With `COCCOCCOCCOCCOC(=O)Oc1ccc2c3c1OC1C4(OC)CC[C@]5(CC4C(C)(O)C(C)(C)C)[C@@H](C2)N(CC2CC2)CC[C@]315` (stereo partly drawn) [ALL00115, Buprenorphine 3,6,9,12-tetraoxatridecyl carbonate] the “24 h cumulative amt” value [21] was 4.5 ± 1.3 nmol, the Flux [21] was 0.2 ± 0.1 nmol/cm^2/h and the Lag time [21] was 7.6 ± 0.5 h. The “24 h cumulative amt” value [22] was 4.5 ± 1.3 nmol, the Flux [22] was 0.2±0.1 nmol/cm^2/h and the Lag time [22] was 7.6 ± 0.5 h. The Flux enhancement (Table 10, gel formulation, total buprenorphine flux relative to buprenorphine) was 1.2, the “24 h cumulative amt” value [15] was 6.0 ± 1.3 nmol and the “24 h cumulative amt” value [13] was 6.0 ± 1.3 nmol. For the same molecule, the Flux [13] was 0.7±0.2 nmol/cm^2/h, the Lag time [13] was 9.4 ± 8.5 h and the Flux enhancement [14] was 2.3. The “form detected in the receiver fluid” value (both the gel formulation and propylene glycol) was “mostly detected as intact prodrug”, the “24 h skin conc” value ([1]; Table 10, gel formulation, analyte buprenorphine from prodrug) was 0.1 ± 0.0 µmol/g and the “24 h skin conc” value [1, 21] was 3.4 ± 0.6 µmol/g. The “24 h skin conc” value [1, 22] was 1.4 ± 0.4 µmol/g, the “24 h skin conc” value [1, 15] was 0.8 ± 0.2 µmol/g and the “24 h skin conc” value [1, 13] was 0.8 ± 0.2 µmol/g.
